The values that follow come from US10294234B2, “HIV inhibitor compounds” (priority 2017, dated 2019).

In one test the test system is HIV-1 (IIIB) in MT-4 cells. The test can be described thus: MT-4 HIV assay. Format: cell-based. The following applies: Human immunodeficiency virus 1, MT4, 120 h. Summed up: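 Antiviral activity was read by Cell Titer Glo after a 5-day, 37 °C culture of MT-4 cells pre-infected with a 1:250 dilution of HIV-1 (IIIB). Compounds were tested as threefold dilution series in complete RPMI. Controls were no drug, mock infection and 5 uM AZT.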
As a reminder, the EC50 is the concentration needed to bring the measured effect to its halfway point. Molecule `COC(=O)N[C@H](C(=O)N[C@@H](Cc1ccc(C#Cc2ccc(N3CC4CCC(C3)N4CC3CN(C(=O)OC(C)(C)C)C3)nc2)cc1)[C@@H](O)CN(Cc1c(F)cc(-c2cnn(C(F)F)c2)cc1F)NC(=O)[C@@H](NC(=O)OC)C(C)(C)C(F)(F)F)C(C)(C)C(F)(F)F` [Example 110, tert-butyl 3-((3-(5-((4-((2S,3S)-4-(1-(4-(1-(difluoromethyl)-1H-pyrazol-4-yl)-2,6-difluorobenzyl)-2-((S)-4,4,4-trifluoro-2-((methoxycarbonyl)amino)-3,3-dimethylbutanoyl)hydrazinyl)-3-hydroxy-2-((S)-4,4,4-trifluoro-2-((methoxycarbonyl)amino)-3,3-dimethylbutanamido)butyl)phenyl)ethynyl)pyridin-2-yl)-3,8-diazabicyclo[3.2.1]octan-8-yl)methyl)azetidine-1-carboxylate] displayed an EC50 of 30.8 nM.

In turn, `COC(=O)N[C@H](C(=O)N[C@@H](Cc1ccc(C#Cc2ccc(N3CC4CCC(C3)N4C3COC3)nc2)cc1)[C@@H](O)CN(Cc1ccc(-c2ccc(F)cn2)cc1)NC(=O)[C@@H](NC(=O)OC)C(C)(C)C(F)(F)F)C(C)(C)C(F)(F)F` [Example 111, Methyl ((5S,8S,9S,14S)-16,16,16-trifluoro-11-(4-(5-fluoropyridin-2-yl)benzyl)-9-hydroxy-15,15-dimethyl-8-(4-((6-(8-(oxetan-3-yl)-3,8-diazabicyclo [3.2.1]octan-3-yl)pyridin-3-yl)ethynyl)benzyl)-3,6,13-trioxo-5-(1,1,1-trifluoro-2-methylpropan-2-yl)-2-oxa-4,7,11,12-tetraazahexadecan-14-yl)carbamate] came in with an EC50 of 7.22 nM.

Staying with this test, now noted: Human immunodeficiency virus 1, MT4, 120 h; HIV-1 (IIIB), MT-4 cells, 5 days, Cell Titer Glo; read-out: EC50.
For the molecule `COC(=O)N[C@H](C(=O)N[C@@H](Cc1ccc(C#Cc2ccc(N3CCN(C4CCOCC4)CC3)nc2)cc1)[C@@H](O)CN(Cc1c(F)cc(-c2ccn(C(F)F)n2)cc1F)NC(=O)[C@@H](NC(=O)OC)C(C)(C)C(F)(F)F)C(C)(C)C(F)(F)F` [Example 104, Methyl ((5S,8S,9S,14S)-11-(4-(1-(difluoromethyl)-1H-pyrazol-3-yl)-2,6-difluorobenzyl)-16,16,16-trifluoro-9-hydroxy-15,15-dimethyl-3,6,13-trioxo-8-(4-((6-(4-(tetrahydro-2H-pyran-4-yl)piperazin-1-yl)pyridin-3-yl)ethynyl)benzyl)-5-(1,1,1-trifluoro-2-methylpropan-2-yl)-2-oxa-4,7,11,12-tetraazahexadecan-14-yl)carbamate], the EC50 was found to be 4.97 nM.

`COC(=O)N[C@H](C(=O)N[C@@H](Cc1ccc(C#Cc2ccc(N3CC4CCC(C3)N4CC3(C)COC3)nc2)cc1)[C@@H](O)CN(Cc1c(F)cc(-c2cnn(C(F)F)c2)cc1F)NC(=O)[C@@H](NC(=O)OC)C(C)(C)C(F)(F)F)C(C)(C)C(F)(F)F` [Example 108, Methyl ((5S,8S,9S,14S)-11-(4-(1-(difluoromethyl)-1H-pyrazol-4-yl)-2,6-difluorobenzyl)-16,16,16-trifluoro-9-hydroxy-15,15-dimethyl-8-(4-((6-(8-((3-methyloxetan-3-yl)methyl)-3,8-diazabicyclo[3.2.1]octan-3-yl)pyridin-3-yl)ethynyl)benzyl)-3,6,13-trioxo-5-(1,1,1-trifluoro-2-methylpropan-2-yl)-2-oxa-4,7,11,12-tetraazahexadecan-14-yl)carbamate]: the EC50 was 7.23 nM.

With `COC(=O)N[C@H](C(=O)N[C@@H](Cc1ccc(C#Cc2ccc(N3CC4CCC(C3)N4CC3CNC3)nc2)cc1)[C@@H](O)CN(Cc1c(F)cc(-c2cnn(C(F)F)c2)cc1F)NC(=O)[C@@H](NC(=O)OC)C(C)(C)C(F)(F)F)C(C)(C)C(F)(F)F` [Example 109, Methyl ((5S,8S,9S,14S)-8-(4-((6-(8-(azetidin-3-ylmethyl)-3,8-diazabicyclo[3.2.1]octan-3-yl)pyridin-3-yl)ethynyl)benzyl)-11-(4-(1-(difluoromethyl)-1H-pyrazol-4-yl)-2,6-difluorobenzyl)-16,16,16-trifluoro-9-hydroxy-15,15-dimethyl-3,6,13-trioxo-5-(1,1,1-trifluoro-2-methylpropan-2-yl)-2-oxa-4,7,11,12-tetraazahexadecan-14-yl)carbamate], the EC50 was 59.7 nM.

Consider `COC(=O)N[C@H](C(=O)N[C@@H](Cc1ccc(C#Cc2ccc(N3CCN(C4COC4)CC3)nc2)cc1)[C@@H](O)CN(Cc1ccc(-c2cnn(C(F)F)c2)cc1)NC(=O)[C@@H](NC(=O)OC)C(C)(C)C(F)(F)F)C(C)(C)C(F)(F)F` [Example 113, Methyl ((5S,8S,9S,14S)-11-(4-(1-(difluoromethyl)-1H-pyrazol-4-yl)benzyl)-16,16,16-trifluoro-9-hydroxy-15,15-dimethyl-8-(4-((6-(4-(oxetan-3-yl)piperazin-1-yl)pyridin-3-yl)ethynyl)benzyl)-3,6,13-trioxo-5-(1,1,1-trifluoro-2-methylpropan-2-yl)-2-oxa-4,7,11,12-tetraazahexadecan-14-yl)carbamate], for which the EC50 turned out to be 6.01 nM.

As to `COC(=O)N[C@H](C(=O)NN(Cc1ccc(-c2cnn(C3CC3)c2)cc1)C[C@H](O)[C@H](Cc1ccc(C#Cc2ccc(N3CC4CCC(C3)N4C3COC3)nc2)cc1)NC(=O)[C@@H](NC(=O)OC)C(C)(C)C(F)(F)F)C(C)(C)C` [Example 117, Methyl ((5S,8S,9S,14S)-11-(4-(1-cyclopropyl-1H-pyrazol-4-yl)benzyl)-9-hydroxy-15,15-dimethyl-8-(4-((6-(8-(oxetan-3-yl)-3,8-diazabicyclo [3.2.1]octan-3-yl)pyridin-3-yl)ethynyl)benzyl)-3,6,13-trioxo-5-(1,1,1-trifluoro-2-methylpropan-2-yl)-2-oxa-4,7,11,12-tetraazahexadecan-14-yl)carbamate], the EC50 amounted to 4.15 nM.

For `COC(=O)N[C@H](C(=O)N[C@@H](Cc1ccc(C#Cc2cnc(N3CC4CCC(C3)N4C3COC3)nc2)cc1)[C@@H](O)CN(Cc1ccc(-c2ccn(C(F)F)n2)cc1F)NC(=O)[C@@H](NC(=O)OC)C(C)(C)C(F)(F)F)C(C)(C)C(F)(F)F` [Example 118, Methyl ((5S,8S,9S,14S)-11-(4-(1-(difluoromethyl)-1H-pyrazol-3-yl)-2-fluorobenzyl)-16,16,16-trifluoro-9-hydroxy-15,15-dimethyl-8-(4-((2-(8-(oxetan-3-yl)-3,8-diazabicyclo[3.2.1]octan-3-yl)pyrimidin-5-yl)ethynyl)benzyl)-3,6,13-trioxo-5-(1,1,1-trifluoro-2-methylpropan-2-yl)-2-oxa-4,7,11,12-tetraazahexadecan-14-yl)carbamate], the concentration for a half-maximal effect (EC50) was 10.6 nM.

`COC(=O)N[C@H](C(=O)N[C@@H](Cc1ccc(C#Cc2ccc(N3C[C@@H](C)O[C@@H](C)C3)nc2)cc1)[C@@H](O)CN(Cc1c(F)cc(-c2cnn(C(F)F)c2)cc1F)NC(=O)[C@@H](NC(=O)OC)C(C)(C)C(F)(F)F)C(C)(C)C(F)(F)F` [Example 132, Methyl ((5S,8S,9S,14S)-11-(4-(1-(difluoromethyl)-1H-pyrazol-4-yl)-2,6-difluorobenzyl)-8-(4-((6-((2S,6R)-2,6-dimethylmorpholino)pyridin-3-yl)ethynyl)benzyl)-16,16,16-trifluoro-9-hydroxy-15,15-dimethyl-3,6,13-trioxo-5-(1,1,1-trifluoro-2-methylpropan-2-yl)-2-oxa-4,7,11,12-tetraazahexadecan-14-yl)carbamate]: the EC50 was found to be 18.2 nM.

Regarding `COC(=O)N[C@H](C(=O)N[C@@H](Cc1ccc(C#Cc2ccc(N3C[C@H]4C[C@@H]3CN4C3COC3)nc2)cc1)[C@@H](O)CN(Cc1c(F)cc(-c2ccc(F)cn2)cc1F)NC(=O)[C@@H](NC(=O)OC)C(C)(C)C(F)(F)F)C(C)(C)C(F)(F)F` [Example 135, Methyl ((5S,10S,11S,14S)-8-(2,6-difluoro-4-(5-fluoropyridin-2-yl)benzyl)-16,16,16-trifluoro-10-hydroxy-15,15-dimethyl-11-(4-((6-((1R,4R)-5-(oxetan-3-yl)-2,5 diazabicyclo[2.2.1]heptan-2-yl)pyridin-3-yl)ethynyl)benzyl)-3,6,13-trioxo-5-(1,1,1-trifluoro-2-methylpropan-2-yl)-2-oxa-4,7,8,12-tetraazahexadecan-14-yl)carbamate], the EC50 came out at 3.64 nM.

Take `COC(=O)N[C@H](C(=O)N[C@@H](Cc1ccc(C#Cc2ccc(N3CCN4CCOC[C@H]4C3)nc2)cc1)[C@@H](O)CN(Cc1c(F)cc(-c2ccn(C3CC3)n2)cc1F)NC(=O)[C@@H](NC(=O)OC)C(C)(C)C(F)(F)F)C(C)(C)C(F)(F)F` [Example 136, methyl ((5S,8S,9S,14S)-11-(4-(1-cyclopropyl-1H-pyrazol-3-yl)-2,6-difluorobenzyl)-16,16,16-trifluoro-8-(4-((6-((R)-hexahydropyrazino[2,1-c][1,4]oxazin-8(1H)-yl)pyridin-3-yl)ethynyl)benzyl)-9-hydroxy-15,15-dimethyl-3,6,13-trioxo-5-(1,1,1-trifluoro-2-methylpropan-2-yl)-2-oxa-4,7,11,12-tetraazahexadecan-14-yl)carbamate]: the EC50 amounted to 3.85 nM.

`COC(=O)N[C@H](C(=O)N[C@@H](Cc1ccc(C#Cc2ccc(N3CCN4CCOC[C@H]4C3)nc2)cc1)[C@@H](O)CN(Cc1c(F)cc(-c2cc(F)ccn2)cc1F)NC(=O)[C@@H](NC(=O)OC)C(C)(C)C(F)(F)F)C(C)(C)C(F)(F)F` [Example 137, Methyl ((5S,8S,9S,14S)-11-(2,6-difluoro-4-(4-fluoropyridin-2-yl)benzyl)-16,16,16-trifluoro-8-(4-((6-((R)-hexahydropyrazino[2,1-c][1,4]oxazin-8(1H)-yl)pyridin-3-yl)ethynyl)benzyl)-9-hydroxy-15,15-dimethyl-3,6,13-trioxo-5-(1,1,1-trifluoro-2-methylpropan-2-yl)-2-oxa-4,7,11,12-tetraazahexadecan-14-yl)carbamate]: the EC50 is 3.31 nM.
